# Data published in publication doi:10.1101/2020.05.05.079848v2 (biorxiv, 2020).
# Experiments:
# [1] = biological target: SARS-CoV-2 M^pro-N (N-terminal domain with the catalytic core) (Severe acute respiratory syndrome coronavirus 2, UniProt P0DTD1); assay type: binding; details: catalytic pocket, probably more than one site
# [2] = biological target: SARS-CoV-2 M^pro (main protease, 3CL^pro), full-length (Severe acute respiratory syndrome coronavirus 2, UniProt P0DTD1); experiment: fluorescent peptide cleavage assay, two doses; assay type: biochemical; details: unreliable; estimated from two doses; limited by low aqueous solubility
smiles,measurement,setting,value
O=C(O)c1cccnc1 [niacin],1H-15N HSQC chemical shift perturbation,[1],"niacin perturbs H41, G143, N51, and V186"
CSc1nc2cc(Cl)c(Oc3cccc(Cl)c3Cl)cc2[nH]1 [triclabendazole],IC50,[2],~ 70 μM
